From patent publication US20260234634A1, “UNG/UDG INHIBITION IN BRCA-ASSOCIATED CANCER” (INSTITUT CURIE, priority 2023, published 2026)

Columns and labels:
Format in all cases: cell-based
[1] = system: WT RPE-1 cells; assay: 12-day clonogenic survival assay, WT cells; details: for IC50: calculated IC50, WT cells
Procedure: (§1) a. Top, Immunoblot profiling of WT and NMNAT1^−/− RPE-1 cells for the indicated proteins. Bands corresponding to UNG1 (lower MW) and UNG2 (higher MW) are indicated. […] Cells were treated for 24 hours with the indicated doses of FdUrd, with and without 5 μM TAS-114. Bottom, Cell cycle distribution of WT (+/+) and NMNAT1^−/− (−/−) RPE-1 cells treated as in (top) (n=2). b. Quantification of gDNA-uracil and DNA breaks by modified comet assay with (right) and without (left) recombinant UNG (rUNG) respectively, in WT RPE-1 cells upon 24-hour FdUrd treatment with and without 5 μM TAS-114. Results are shown as tail moment. At least 80 comets per condition was measured using CometScore. […] The enzymes involved are indicated in bold and italic. Bottom, Immunoblot profiling of NMNAT1, ADP-ribosylation (PAR) and PARP1 (short and long exposures) in WT and NMNAT1^−/− cells complemented or not with wild type (WT) or catalytically-dead mutant (MUT) NMNAT1 (W169A). PARP1 was detected after membrane stripping of the anti-ADP ribosylation antibody. Cells were treated or not with PDD 00017273 (PARGi, 10 μM) for 2 hours and 10 mM MMS was added the last 10 minutes before cell lysis. Vinculin was used as loading control. d. Quantification of the 12-day clonogenic survival assay of the same cells as in (c, bottom) treated or not with the indicated doses of rucaparib (PARPi) for the duration of the experiment (n=3). e. Quantification of the 12-day clonogenic survival assay in WT (black) and NMNAT1^−/− (red) cells following exposure to the indicated doses of the indicated DNA-damaging drugs (n=3). f. Quantification of the 12-day clonogenic survival assay in WT, NMNAT1^−/−, and UNG^−/− cells following 24-hour exposure to the indicated doses of FdUrd with or without 5 μM TAS-114 (n=3). g. Quantification of the 12-day clonogenic survival assay in WT (black), NMNAT1^−/−, and UNG^−/− cells following 24-hour exposure to the indicated doses of TAS-114. (n=3). For WT cells, data are the same as in (FIG. 14c). h. Top, RT-qPCR quantification of DUT mRNA levels following 72-hour transfection of WT RPE-1 cells with DUT siRNA (siDUT) or relative control (siCTRL). Results are represented as fold change over siCTRL. (Bottom), Quantification of the 12-day clonogenic survival assay in WT (left), NMNAT1^−/− (middle), and UNG^−/− (right) cells following transfection with DUT siRNA and relative control (siCTRL). Data were expressed as a percentage (mean±s.e.m.) of colonies formed in each cell line relative to the appropriate siCTRL (n=3). i. Quantification of gDNA-uracil and DNA breaks as in (b) in WT and NMNAT1^−/− cells upon 0.08 μM FdUrd treatment with and without 5 μM TAS-114 for 24 hours.
(§2) To investigate the mechanism underlying the interplay between UNG and SMUG1, the inventors investigated the role of nuclear NAD^+ (nicotinamide adenine dinucleotide), a molecule with essential—yet poorly characterized—functions in DNA repair. In the nucleus of mammalian cells NAD^+ is synthesized by NMNAT1 (nicotinamide mononucleotide adenylyltransferase 1) and fuels the activity of PARP1 and sirtuins (FIG. 15c). The inventors generated NMNAT1 knockout (NMNAT1^−/−) RPE-1 cells and evaluated their sensitivity to a panel of DNA damaging agents (Table 1).

[2] = system: NMNAT1−/− RPE-1 cells; assay: 12-day clonogenic survival assay, NMNAT1 knockout cells; details: for IC50: calculated IC50, NMNAT1−/− cells; for sensitivity of NMNAT1−/− cells relative to WT cells: drugs targeting the TS pathway; for Fold change (WT/NMNAT1−/−): ratio of IC50 WT to IC50 NMNAT1−/−
Procedure: as §1, §2

[3] = system: cells lacking either NMNAT1 or UNG; assay: γH2AX foci formation (DSB) by immunofluorescence; details: 24 h treatment, EdU-positive cells
Procedure: FIG. 11. Uracil excision is regulated by nuclear NAD^+. a. Quantification of post-replicative ssDNA gaps using DNA fiber assay in P53^−/− RPE-1 cells after 48-hours transfection with the indicated siRNAs. b. Schematic of 2′-deoxyuridine (dUTP)/thymidine (dTTP) biosynthetic pathway. The biological processes involved are in italic. c. Nuclear fractionation and immunoblot profiling of the indicated proteins following 24-hour drug exposure (0.1 μM FdUrd+5 μM TAS-114) of WT and UNG^−/− cells. For the washed-out samples (w.o.), cells were harvested 24 hours after drug removal. Western blot images are representative of three experiments. d. Left, quantification of DNA breaks (left, − rUNG) and gDNA-uracil (right, + rUNG) in wild type (WT) and NMNAT1^−/− cells upon 24-hour FdUrd treatment (20 μM) and the indicated hours after drug washout (w.o.). […] Right, Quantification of UNG protein level captured as in (left) normalized over captured PCNA and H3. f. Quantification of γH2AX foci formation before and after 24 h treatment of WT (grey) and NMNAT1^−/− (orange) cells with the indicated doses of TAS-114 (μM). g. Quantification (left) and representative images (right) of 12-day clonogenic survival assay following transfection with siRNAs and drug treatment of WT and NMNAT1^−/− cells as indicated. […]
a. […] Mass spectrometry-based quantification of the indicated metabolites (n=3). c. […]

[4] = system: BRCA2−/− RPE-1 cells (clones C1 and C2); assay: Clonogenic formation / survival assay, BRCA2 knockout clones
Procedure: (§3) FIG. 7. a, Clonogenic formation of wild type (WT) and BRCA2−/− (clones C1 and C2) following exposure to the indicated doses of SIRT6 inhibitor OSS_128167. b, Clonogenic formation of wild type (WT), BRCA2−/− (clones C1 and C2) and BRCA2−/−-derived PARPi-resistant RPE-1 cells following exposure to 0.5 mM SIRT6 inhibitor OSS_128167. c, Clonogenic formation of parental and derived PARPi-resistant CAPAN-1 clones following exposure to the indicated doses of SIRT6 inhibitor OSS_128167. The normal breast epithelial cells MCF10A were included as an HR-proficient cell line.
a. Quantification (top) and representative image (bottom right) of the 12-day clonogenic survival assay in WT and BRCA2^−/− cells following transduction with viral particles carrying either pLentiCRISPRv2 Neo_UNG gRNA (UNG gRNA) or relative control (CTRL gRNA) (n=3). Cells were seeded for clonogenic assay after selection with G418. Bottom left, Immunoblot analysis of UNG after G418 selection. b. […] Right, qPCR-based quantification of UNG activity in the same cell lines as in (left). c. […] Right, immunoblot analysis of UNG in the same samples as in (left). The arrows indicate UNG1 (lower) and UNG2 (upper). Vinculin was used as a loading control. d. […] Left, Quantification (left) and representative images (right) of the 12-day clonogenic survival assay in WT and NMNAT1^−/− cells complemented or not (EV, empty vector) with wild-type (WT) or catalytically-dead mutant (MUT:W169A) NMNAT1 cDNA following transfection with siBRCA2 (n=3). f. Quantification of the 12-day clonogenic survival assay in the HR-deficient cancer cell lines CAPAN1 (BRCA2 mutated) and OVCAR8 (BRCA1 promoter hypermethylation) following transfection with siUNG #7 (n=3). g. Quantification (left) and representative images (right) of the 12-day clonogenic survival assay in a panel of HR-proficient and HR-deficient cancer and normal (MCF10A) cell lines following transfection with siNMNAT1 (n=3).

[5] = system: PARPi-resistant CAPAN-1 clones; assay: Clonogenic formation, PARPi-resistant CAPAN-1 clones; details: indicated doses
Procedure: as §3

[6] = system: BRCA2−/−-derived PARPi-resistant RPE-1 cells; assay: Clonogenic formation, PARPi-resistant BRCA2 knockout cells; details: 0.5 mM inhibitor
Procedure: as §3

[7] = system: MCF10A cells; assay: Clonogenic formation, normal breast epithelial cells; details: same doses as for the CAPAN-1 clones
Procedure: as §3

With `CN(Cc1cnc2nc(N)nc(N)c2n1)c1ccc(C(=O)N[C@@H](CCC(=O)O)C(=O)O)cc1` [MTX] the IC50 [1] was 112 µM, the IC50 [2] was 8.8 µM and the “sensitivity of NMNAT1−/− cells relative to WT cells” value [2] was “more sensitive than WT cells”. For the same molecule, the “Fold change (WT/NMNAT1−/−)” value [2] was 12.75.

`NC(=O)NO` [HU, hydroxyurea] was tested, and the IC50 [1] was 1570 µM, the IC50 [2] was 637 µM and the “Fold change (WT/NMNAT1−/−)” value [2] was 2.46.

`OO` [H202] was tested, and the IC50 [1] was 22.8 µM, the IC50 [2] was 22.1 µM and the “Fold change (WT/NMNAT1−/−)” value [2] was 1.03.

For `C[C@@H](NS(=O)(=O)CCCOCn1ccc(=O)[nH]c1=O)c1cccc(OC2CCCC2)c1` [TAS-114], the “DSB formation (γH2AX foci)” value [3] was “triggered DNA double-strand break (DSB) formation exclusively during DNA replication”, the “survival upon pharmacological inhibition of DUT” value ([2]; 24-hour exposure) was “decreased survival” and the “sensitivity of BRCA2−/− cells upon UNG depletion” value ([4]; siUNG, 1 μM TAS-114, rescued by knockdown of SMUG1) was “sensitized”.

For `O=C(Nc1ccc(O)c(C(=O)O)c1)c1cccc(NC(=O)c2ccco2)c1` [OSS_128167], the clonogenic formation [5] was “resulted in cell death”, the “survival of parental HRP cells” value ([1]; parental HRP RPE-1 cells, indicated doses) was “no effect on the survival” and the clonogenic formation [6] was “killed the PARPi-resistant BRCA2−/− RPE-1 cells to a similar extent than the parental drug-naïve cells”. For the same molecule, the clonogenic ability [7] was “did not affect the clonogenic ability” and the clonogenic ability ([4]; BRCA2−/− RPE-1 cells, indicated doses) was “impaired the clonogenic ability”.

For `O=c1[nH]c(=O)n([C@H]2C[C@H](O)[C@@H](CO)O2)cc1F` [FDURD, 5-fluorodeoxyuridine], the IC50 ([1]; Homo sapiens, RPE-1) was 51.6 µM, the IC50 ([2]; Homo sapiens, RPE-1) was 17.7 µM and the “sensitivity of NMNAT1−/− cells relative to WT cells” value [2] was “more sensitive than WT cells”. For the same molecule, the “Fold change (WT/NMNAT1−/−)” value [2] was 2.92.

With `COS(C)(=O)=O` [MMS] the IC50 [1] was 242 µM, the IC50 [2] was 130 µM and the “Fold change (WT/NMNAT1−/−)” value [2] was 1.86.

B1: UGI: peptide inhibitor of UNG, delivered by retroviral particles (protein, UniProt P14739 1-84, looked up)
Uracil-DNA glycosylase …: MTNLSDIIEKETGKQLVIQESILMLPEEVEEVIGNKPESDILVHTAYDESTDENVMLLTSDAPEYKPWALVIQDSNGENKIKML
B1 was tested, and the “clonogenic survival upon UNG inhibition” value ([4]; retroviral particles carrying UGI, versus WT cells) was “selectively kills”.
